Like-named read-outs stand apart in the source and are kept apart here.
Columns and labels:
Assay type in all cases: cell-based, human
[1] = test system: breast cancer cell lines with aberrant vs normal copy number; assay: Association of recurrent copy number changes and response (t-test on GI50); settings: FDR p<0.2
From the text: We used a t-test to assess the association between recurrent copy number changes (at 8q24 (MYC), 11q13 (CCND1), 20q13 (STK15/AURKA)) and drug sensitivity. We combined into a single group cell lines with low or no amplification and compared them to cell lines with high amplification. […] Cell lines for which the GI50 was equal to the maximum concentration tested were omitted from analysis. We omitted compounds where any group had fewer than five samples.

[2] = test system: luminal, basal, claudin-low and ERBB2AMP breast cancer cell lines; assay: Associations of clinically relevant subtypes and response (non-parametric ANOVA or t-test on GI50 ranks)
Outline: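 GI50 values were compared between cell-line subtype groups by non-parametric ANOVA or t-test on ranks. P-values from three test sets were combined and FDR-corrected. Significant three-group effects were followed by post-hoc comparison of each group against all others, and FDR p<0.20 counted as significant.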

[3] = test system: panel of 55 breast cancer cell lines; assay: Cell growth inhibition assay (Cell Titer Glo, 72 h, 9 doses; GI50, TGI, LC50); settings: Homo sapiens, read-out: GI50 (converted)

C/C(=C\c1csc(C)n1)[C@@H]1C[C@@H]2O[C@]2(C)CCC[C@H](C)[C@H](O)[C@@H](C)C(=O)C(C)(C)[C@@H](O)CC(=O)N1 [Ixabepilone]
association of response with homozygous deletion at 9p21 (CDKN2A) [1]: associated with response | subtype-specific response (sensitivity by transcriptional subtype) ([2]; GI50 across subtypes): more active against basal and claudin-low cell lines | Subtype specificity ([2]; Table 6, most sensitive subtype, FDR p<0.20): Basal + Claudin-low | GI50 ([3]; 600MPE cell line, censored GI50 values): 5250 nM | GI50 ([3]; AU565, AU565 cell line, censored GI50 values): 4.27 nM | GI50 ([3]; AU565, cell line AU565): 4.27 nM | GI50 ([3]; BT-20, BT20 cell line, censored GI50 values): 8.13 nM | GI50 ([3]; BT-20, cell line BT20): 8.13 nM | GI50 ([3]; BT-474, BT474 cell line, censored GI50 values): 8.32 nM | GI50 ([3]; BT-474, cell line BT474): 8.32 nM | GI50 ([3]; BT-483, BT483 cell line, censored GI50 values): 5370 nM | GI50 ([3]; BT-483, cell line BT483): 5370 nM | GI50 ([3]; BT-549, BT549 cell line, censored GI50 values): 6.03 nM | GI50 ([3]; BT-549, cell line BT549): 6.03 nM | GI50 ([3]; CAMA-1, CAMA1 cell line, censored GI50 values): 1 nM | GI50 ([3]; CAMA-1, cell line CAMA1): 1 nM | GI50 ([3]; HCC38, HCC38 cell line, censored GI50 values): 2.82 nM | GI50 ([3]; HCC38, cell line HCC38): 2.82 nM | GI50 ([3]; HCC70, HCC70 cell line, censored GI50 values): 1.41 nM | GI50 ([3]; HCC70, cell line HCC70): 1.41 nM | GI50 ([3]; HCC202, HCC202 cell line, censored GI50 values): 20000 nM | GI50 ([3]; HCC202, cell line HCC202): 20000 nM | GI50 ([3]; HCC1143, HCC1143 cell line, censored GI50 values): 9.77 nM | GI50 ([3]; HCC1143, cell line HCC1143): 9.77 nM | GI50 ([3]; HCC1187, HCC1187 cell line, censored GI50 values): 2.19 nM | GI50 ([3]; HCC1187, cell line HCC1187): 2.19 nM | GI50 ([3]; HCC1395, HCC1395 cell line, censored GI50 values): 12 nM | GI50 ([3]; HCC1395, cell line HCC1395): 12 nM | GI50 ([3]; HCC1419, HCC1419 cell line, censored GI50 values): 11000 nM | GI50 ([3]; HCC1419, cell line HCC1419): 11000 nM | GI50 ([3]; HCC1428, HCC1428 cell line, censored GI50 values): 58.9 nM | GI50 ([3]; HCC1428, cell line HCC1428): 58.9 nM | GI50 ([3]; HCC1500, HCC1500 cell line, censored GI50 values): 3.24 nM | GI50 ([3]; HCC1500, cell line HCC1500): 3.24 nM | GI50 ([3]; HCC1806, HCC1806 cell line, censored GI50 values): 4.9 nM | GI50 ([3]; HCC1806, cell line HCC1806): 4.9 nM | GI50 ([3]; HCC1937, HCC1937 cell line, censored GI50 values): 309 nM | GI50 ([3]; HCC1937, cell line HCC1937): 309 nM | GI50 ([3]; HCC1954, HCC1954 cell line, censored GI50 values): 1.95 nM | GI50 ([3]; HCC1954, cell line HCC1954): 1.95 nM | GI50 ([3]; HCC2185 cell line, censored GI50 values): 9120 nM | GI50 ([3]; HCC3153 cell line, censored GI50 values): 6.17 nM | GI50 ([3]; LY2 cell line, censored GI50 values): 6.03 nM | GI50 ([3]; MCF7, MCF7 cell line, censored GI50 values): 0.363 nM | GI50 ([3]; MCF7, cell line MCF7): 0.363 nM | GI50 ([3]; MDA-MB-134-VI, MDAMB134VI cell line, censored GI50 values): 1.62 nM | GI50 ([3]; MDA-MB-157, MDAMB157 cell line, censored GI50 values): 4.9 nM | GI50 ([3]; MDA-MB-157, cell line MDAMB157): 4.9 nM | GI50 ([3]; MDA-MB-231, MDAMB231 cell line, censored GI50 values): 0.457 nM | GI50 ([3]; MDA-MB-231, cell line MDAMB231): 0.457 nM | GI50 ([3]; MDA-MB-361, MDAMB361 cell line, censored GI50 values): 2.29 nM | GI50 ([3]; MDA-MB-361, cell line MDAMB361): 2.29 nM | GI50 ([3]; MDA-MB-415, MDAMB415 cell line, censored GI50 values): 8.13 nM | GI50 ([3]; MDA-MB-415, cell line MDAMB415): 8.13 nM | GI50 ([3]; MDA-MB-436, MDAMB436 cell line, censored GI50 values): 5.75 nM | GI50 ([3]; MDA-MB-436, cell line MDAMB436): 5.75 nM | GI50 ([3]; MDA-MB-453, MDAMB453 cell line, censored GI50 values): 7.76 nM | GI50 ([3]; MDA-MB-453, cell line MDAMB453): 7.76 nM | GI50 ([3]; MDA-MB-468, MDAMB468 cell line, censored GI50 values): 1.32 nM | GI50 ([3]; MDA-MB-468, cell line MDAMB468): 1.32 nM | GI50 ([3]; SK-BR-3, SKBR3 cell line, censored GI50 values): 10.5 nM | GI50 ([3]; SK-BR-3, cell line SKBR3): 10.5 nM | GI50 ([3]; SUM52PE, SUM52PE cell line, censored GI50 values): 2.95 nM | GI50 ([3]; SUM52PE, cell line SUM52PE): 2.95 nM | GI50 ([3]; SUM149PT, SUM149PT cell line, censored GI50 values): 5.5 nM | GI50 ([3]; SUM149PT, cell line SUM149PT): 5.5 nM | GI50 ([3]; SUM185PE, SUM185PE cell line, censored GI50 values): 8.51 nM | GI50 ([3]; SUM185PE, cell line SUM185PE): 8.51 nM | GI50 ([3]; SUM225CWN, SUM225CWN cell line, censored GI50 values): 20000 nM | GI50 ([3]; SUM225CWN, cell line SUM225CWN): 20000 nM | GI50 ([3]; SUM1315MO2, SUM1315MO2 cell line, censored GI50 values): 6.03 nM | GI50 ([3]; SUM-159-PT, SUM159PT cell line, censored GI50 values): 6.92 nM | GI50 ([3]; SUM-159-PT, cell line SUM159PT): 6.92 nM | GI50 ([3]; T47D, T47D cell line, censored GI50 values): 7.94 nM | GI50 ([3]; T47D, cell line T47D): 7.94 nM | GI50 ([3]; UACC-812, UACC812 cell line, censored GI50 values): 5890 nM | GI50 ([3]; UACC-812, cell line UACC812): 5890 nM | GI50 ([3]; UACC-893, UACC893 cell line, censored GI50 values): 6.31 nM | GI50 ([3]; UACC-893, cell line UACC893): 6.31 nM | GI50 ([3]; ZR-75-1, ZR751 cell line, censored GI50 values): 295 nM | GI50 ([3]; ZR-75-1, cell line ZR751): 295 nM | GI50 ([3]; cell line 600MPE): 5250 nM | GI50 ([3]; cell line HCC2185): 9120 nM | GI50 ([3]; cell line HCC3153): 6.17 nM | GI50 ([3]; cell line LY2): 6.03 nM | GI50 ([3]; cell line MDAMB134V): 1.62 nM | GI50 ([3]; cell line SUM1315MO): 6.03 nM

Source: US10770169B2, “Method of providing a treatment to a subject based on a dynamic pathway map” (THE REGENTS OF THE UNIVERSITY OF CALIFORNIA, priority 2010, dated 2020)
